This is an account of results in patent US5811398A, “Platelet aggregation inhibitors containing C-terminal aminergic side chain amino acid residues” (G. D. Searle & Co., priority 1995, dated 1998).

As usually defined, the IC50 is the concentration at which inhibition is half-maximal.

The experiment has as its system ADP-induced platelet aggregation in dog platelet-rich plasma (PRP). The experiment in a line: In-Vitro Platelet Aggregation in PRP. It counts as cell-based. Conditions: aggregation induced by ADP (50 μm final concentration), 1 minute preincubation at 37° C. On the procedure: In-Vitro Platelet Aggregation in PRP
Healthy male or female dogs were fasted for 8 hours prior to drawing blood; then 30 ml whole blood was collected using a butterfly needle and 30 cc plastic syringe with 3 ml of 0.129M buffered sodium citrate (3.8%). The syringe was rotated carefully as blood was drawn to mix the citrate. Platelet-rich plasma (PRP) was prepared by centrifugation at 975×g for 3.17 minutes at room temperature, allowing the centrifuge to coast to a stop without braking. The PRP was removed from the blood with a plastic pipette and placed in a plastic capped, 50 ml Corning conical sterile centrifuge tube which was held at room temperature. Platelet poor plasma (PPP) was prepared by centrifuging the remaining blood at 2000×g for 15 minutes at room temperature allowing the centrifuge to coast to a stop without braking. The PRP was adjusted with PPP to a count of 2-3×10^8 platelets per ml. 400 μl of the PRP preparation and 50 μl of the compound to be tested or saline were preincubated for 1 minute at 37° C. in a BioData aggregometer (BioData, Horsham, Pa.). 50 μl of adenosine 5'-diphosphate (ADP) (50 μm final concentration) was added to the cuvettes and the aggregation was monitored for 1 minute. […] Results are calculated as follows: [formula]
The assay results for the compound of Example 1 and its median inhibitory concentration (IC50) is recorded in Table I.

Compound `N=C(N)c1ccc(NC(=O)CCC(=O)N[C@@H](CC(=O)O)C(=O)N[C@@H](CCCCN)C(=O)O)cc1` [Example 1, N-[4-[[4-(aminoiminomethyl)phenyl]amino]-1,4-dioxobutyl]-L-aspartyl]-L-lysine bistrifluoroacetate] came in with an IC50 of 180 nM.
